Assay results: US20110054040A1, “Bicyclic Triterpenoid Iripallidal as a Novel Anti-Glioma and Anti-Neoplastic Therapy” (DEPARTMENT OF BIOTECHNOLOGY, priority 2008, published 2011)
Read-outs that look alike come from different tables or passages of the source.

What was measured:
protein kinase C alpha = protein kinase C alpha (Homo sapiens, UniProt P17252); settings: cited from earlier work
normal human monocytes = assay: MTS cell viability assay, normal human monocytes; assay type: cell-based; settings: 24 hours, serum free media
Procedure: In another embodiment normal human monocytes were treated with different concentration of Iripallidal in serum free media for 24 hours and cell viability was assessed using the MTS assay. Values were expressed as a percentage relative to those obtained in controls.
Whole blood (5 ml) was drawn from normal human volunteers and mononuclear cells were separated by Histopaque density gradient centrifugation. Briefly, blood was diluted twice with phosphate buffered saline (PBS) and layered over Histopaque (Sigma, Mo., USA) and centrifuged at 1500 rpm for 20 mins at room temperature. Peripheral blood mononuclear cells (PBMC) were collected carefully at the interface of Histopaque and plasma, diluted five times with PBS and centrifuged at 1500 rpm for 10 mins. PBMC thus pelleted were washed twice with PBS and seeded onto glass petri dishes and allowed to adhere for 3 hrs. Non adherent cells were removed by gentle washing with PBS twice and the adherent monocytes were used in MTS assay.
(§1) Cell viability was assessed using the [3-(4,5-dimethylthiazol-2-yl)-5-(3-carboxymethoxy-phenyl)-2-(4-sulfophenyl)-2H-tetrazolium, inner salt] (MTS) as described earlier. […] After 4 hours of incubation the absorbance reflecting reduction of MTS by viable cells was determined at 490 nm. Values were expressed as a percentage relative to those obtained in controls.

Ras [1] = assay: Western blot analysis of Ras expression in glioma cells; assay type: cell-based, human; settings: GBM cell lines (A172, U87MG); Iripallidal 20 μM
Procedure: In another embodiment, protein isolated from glioma cells were treated with Iripallidal and electrophoresed on 6% to 10% polyacrylamide gel, Western blotting was performed and expression of Ras determined as described previously.
(§2) Glioblastoma cell lines U87MG, A172, T98G, and LN229; breast cancer cell line MCF7, cervical cancer cell line HeLa, hepatocellular carcinoma cell line HepG2, acute myeloid leukemia THP1, colon carcinoma cell line HT-29 and acute myeloid leukemic cell line THP1 were obtained from American Type Culture Collection and cultured in DMEM supplemented with 10% fetal bovine serum. On attaining semi-confluence, cells were switched to serum free media and after 12 hours, cells were treated with different concentration of Iripallidal (in DMSO) in serum free media for 24 hours. Following treatment, the cells were processed for Western blot analysis. DMSO treated cells were used as controls.
Protein from whole cell lysates were isolated as described previously. Twenty to fifty μg of protein isolated from cells treated with Iripallidal was electrophoresed on 6% to 10% polyacrylamide gel. Western blotting was performed and Ras expression was determined as described. The blots were stripped and reprobed with anti-β-actin to determine equivalent loading.

[2] = tested on: U87MG, A172, LN229 and T98G cells; assay: MTS cell viability assay, glioma cell lines; assay type: cell-based, human; settings: 24 hours, serum free media, in vitro
Procedure: In another embodiment GBM cell lines U87MG, A172, T98G, and LN229 were treated with different concentration of Iripallidal (in Dimethyl sulphoxide, DMSO) in serum free media for 24 hours and cell viability was assessed using the [3-(4,5-dimethylthiazol-2-yl)-5-(3-carboxymethoxy-phenyl)-2-(4-sulfophenyl)-2H-tetrazolium, inner salt] (MTS) assay. Values were expressed as percent cell viability relative to control.
as §2, with “DMSO treated cells were used as controls.” left out
as §1, with “salt]” for “salt] (MTS) as described earlier.”

RasGRP3 = biological target: T1, RasGRP3 (Homo sapiens, UniProt Q8IV61); settings: cited from earlier work
T1 sequence (Q8IV61 1-690): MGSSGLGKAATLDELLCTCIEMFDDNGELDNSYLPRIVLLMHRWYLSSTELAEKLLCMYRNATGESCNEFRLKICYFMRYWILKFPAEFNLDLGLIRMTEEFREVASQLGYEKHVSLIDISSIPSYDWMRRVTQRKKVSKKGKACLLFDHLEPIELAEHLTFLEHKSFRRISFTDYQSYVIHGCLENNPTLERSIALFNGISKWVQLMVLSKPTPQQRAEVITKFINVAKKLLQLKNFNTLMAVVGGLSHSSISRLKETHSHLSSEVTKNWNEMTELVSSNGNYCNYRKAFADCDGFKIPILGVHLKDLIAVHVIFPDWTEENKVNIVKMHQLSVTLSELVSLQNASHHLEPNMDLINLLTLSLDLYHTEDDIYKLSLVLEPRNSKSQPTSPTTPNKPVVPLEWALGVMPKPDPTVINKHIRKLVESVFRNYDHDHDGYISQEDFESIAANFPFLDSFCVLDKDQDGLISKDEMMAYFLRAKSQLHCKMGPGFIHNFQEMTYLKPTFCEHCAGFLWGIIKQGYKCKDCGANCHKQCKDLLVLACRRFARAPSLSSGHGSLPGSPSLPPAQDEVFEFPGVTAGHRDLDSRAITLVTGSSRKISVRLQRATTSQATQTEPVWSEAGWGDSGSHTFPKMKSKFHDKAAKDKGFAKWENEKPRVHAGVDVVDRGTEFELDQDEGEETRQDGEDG

[3] = tested on: MCF-7, HeLa, HepG2, THP1, HT-29 cells; assay: MTS cell viability assay, breast, cervical, hepatocellular, myeloid leukemia and colon cancer cell lines; assay type: cell-based, human
Procedure: In another embodiment colon cancer cell line HT29, breast cancer line MCF-7, cervical cancer cell line HeLa, hepatocellular carcinoma cell line HepG2 and acute myeloid leukemic cell line THP1 were treated with different concentration of Iripallidal (in Dimethyl sulphoxide, DMSO) in serum free media for 24 hours and cell viability was assessed using the MTS assay. Values were expressed as a percentage relative to those obtained in controls.
as §2, with “Following treatment, the cells were processed for Western blot analysis. DMSO treated cells were used as controls.” left out
as §1, with “salt]” for “salt] (MTS) as described earlier.”

Ras [4] = assay: Ras activity (Ras-GTP pull-down with Raf-1 Ras binding domain) in glioma cells; assay type: cell-based, human; settings: Iripallidal 20 μM, compared to the control
Procedure: In another embodiment the Ras activity was performed using a commercially available kit from Upstate Biotechnology (Temecula, Calif., USA). Briefly, glioma cell lines (2×10^6) treated with Iripallidal were lysed and the cleared lysates were incubated with bead-bound RAS binding domain of Raf-1 protein to precipitate Ras-GTP. The precipitates were subjected to SDS-PAGE and Western blotting.
Effect of Iripallidal on the level of GTP-bound Ras. The level of Ras-GTP in protein extracts of control and Iripallidal treated glioma cells was determined by the ability of Ras-GTP to bind to a specific protein domain of Raf in the form of a GST-fusion protein. […] IR1 denotes Iripallidal.

ERK1/2 = settings: downstream indicator of Ras activation, cited from earlier work
[5] = tested on: panel of 60 human cancer cell lines; settings: NCI 60 cell line screen; cited from earlier work

Question: What does the source list for `CC1=CC[C@H](C)C(C)(C)C1/C=C/C(C)=C/CC[C@@]1(CO)[C@H](CCCO)/C(=C(/C)C=O)CC[C@]1(C)O` (single isomer, unassigned; (-)) [Iripallidal]?
Answer: binding to protein kinase C alpha (protein kinase C alpha): bound; viability of normal human monocytes (normal human monocytes): does not effect the viability; Ras levels (Ras [1]): elevated both Ras levels; viability of glioblastoma cell lines [2]: decreased the viability of glioblastoma cell lines significantly; binding to RasGRP3 (RasGRP3): binds to RasGRP3; binding to RasGRP3 (RasGRP3; listed as NSC 631939): bound; proliferation of breast, colon, cervical, liver and myeloid cancer cells ([3]; 24 hours, serum free media): inhibited the proliferation; reduction of proliferation of cancer cell lines ([3]; cancer cell lines, not specified further): 50-70%; Ras activity (Ras-GTP level) (Ras [4]): An increase Ras activity was observed; phosphorylation of ERK1/2 (ERK1/2): induces phosphorylation of ERK1/2 in a Ras dependent manner; phosphorylation of ERK1/2 (ERK1/2; listed as NSC 631939): induced phosphorylation of ERK1/2; anti-proliferative activity [5]: micromolar to nanomolar range

Question: Which results are given for `C=C(/C=C/C=C(/CCC=C(C)C)COC(C)=O)[C@@H]1CC[C@]2([C@H](CCCO)/C(=C(/C)C=O)CC[C@]2(C)O)[C@@H]1O` [NSC 631941, reference compound]?
Answer: binding to protein kinase C alpha (protein kinase C alpha): bound; binding to RasGRP3 (RasGRP3): bound; phosphorylation of ERK1/2 (ERK1/2): induced phosphorylation of ERK1/2
